Measurements: ChEMBL document CHEMBL5724914, “Linking interpersonal differences in gut microbiota composition and drug biotransformation activity” (2024)

Tests used:
[1] = (§1) The drug is tested on WLS-082 corresponding to human gut metagenome with ENA study accession number: PRJEB37062 and ENA sample accession number: ERS12561751 for biotransformation under anaerobic condition. The drug concentrations were measured over 9 timepoints collected between 0 and 24 hours of incubation by liquid-chromatography-coupled mass spectrometry (LC–MS); details: 2 µM
[2] = as §1, with “Z-027” for “WLS-082”, “to” for “to human gut”, “ERS12561826” for “ERS12561751”; details: 2 µM
[3] = as §1, with “WLS-077” for “WLS-082”, “ERS12561750” for “ERS12561751”; details: 2 µM
[4] = human gut metagenome, 24 h, 2 µM
[5] = human gut metagenome, 24 h, 2 µM; remark: listed apart in the source
[6] = as §1, with “Z-004” for “WLS-082”, “to” for “to human gut”, “ERS12561804” for “ERS12561751”; details: 2 µM
[7] = as §1, with “Z-019” for “WLS-082”, “rat” for “human”, “ERS12561818” for “ERS12561751”; details: 2 µM
[8] = human gut metagenome, 24 h, 2 µM; remark: listed apart in the source
[9] = as §1, with “WLS-069” for “WLS-082”, “ERS12561748” for “ERS12561751”; details: 2 µM
[10] = human gut metagenome, 24 h, 2 µM; remark: listed apart in the source
[11] = as §1, with “Z-020” for “WLS-082”, “rabbit” for “human”, “ERS12561819” for “ERS12561751”; details: 2 µM
[12] = human gut metagenome, 24 h, 2 µM; remark: listed apart in the source
[13] = human gut metagenome, 24 h, 2 µM; remark: listed apart in the source
[14] = as §1, with “Z-023” for “WLS-082”, “to” for “to human gut”, “ERS12561822” for “ERS12561751”; details: 2 µM
[15] = as §1, with “WLS-038” for “WLS-082”, “ERS12561745” for “ERS12561751”; details: 2 µM
[16] = as §1, with “Z-003” for “WLS-082”, “pig” for “human”, “ERS12561803” for “ERS12561751”; details: 2 µM
[17] = as §1, with “WLS-007” for “WLS-082”, “ERS12561742” for “ERS12561751”; details: 2 µM
[18] = as §1, with “Z-008” for “WLS-082”, “to” for “to human gut”, “ERS12561808” for “ERS12561751”; details: 2 µM
[19] = human gut metagenome, 24 h, 2 µM; remark: listed apart in the source
[20] = as §1, with “Z-001” for “WLS-082”, “mouse” for “human”, “ERS12561801” for “ERS12561751”; details: 2 µM
Further: call rule not given here.

Row | Compound | Bacterial Biotransformation [1] | Bacterial Biotransformation [2] | Bacterial Biotransformation [3] | Bacterial Biotransformation [4] | Bacterial Biotransformation [5] | Bacterial Biotransformation [6] | Bacterial Biotransformation [7] | Bacterial Biotransformation [8] | Bacterial Biotransformation [9] | Bacterial Biotransformation [10] | Bacterial Biotransformation [11] | Bacterial Biotransformation [12] | Bacterial Biotransformation [13] | Bacterial Biotransformation [14] | Bacterial Biotransformation [15] | Bacterial Biotransformation [16] | Bacterial Biotransformation [17] | Bacterial Biotransformation [18] | Bacterial Biotransformation [19] | Bacterial Biotransformation [20]
1 | CN1[C@@H]2CC[C@H]1C[C@@H](OC(=O)c1c[nH]c3ccccc13)C2 [TROPISETRON] | Compound NOT metabolized | Compound NOT metabolized | Compound NOT metabolized | Compound NOT metabolized | Compound NOT metabolized | Compound NOT metabolized | Compound NOT metabolized | Compound NOT metabolized | Compound NOT metabolized | Compound metabolized | Compound NOT metabolized | Compound NOT metabolized | Compound NOT metabolized | Compound NOT metabolized | Compound NOT metabolized | Compound NOT metabolized | Compound NOT metabolized | Compound NOT metabolized | Compound NOT metabolized | Compound NOT metabolized
2 | C[C@]12CCC(=O)C=C1[C@@H]1C[C@@H]1[C@H]1[C@@H]3[C@@H]4C[C@@H]4[C@@]4(CCC(=O)O4)[C@@]3(C)CC[C@@H]12 [DROSPIRENONE] | Compound metabolized | Compound NOT metabolized | Compound metabolized | Compound NOT metabolized | Compound metabolized | Compound NOT metabolized | Compound NOT metabolized | Compound metabolized | Compound metabolized | Compound metabolized | Compound metabolized | Compound NOT metabolized | Compound NOT metabolized | Compound metabolized | Compound metabolized | Compound metabolized | Compound metabolized | Compound metabolized | Compound metabolized | Compound NOT metabolized
3 | CC(C)c1nc(N(C)S(C)(=O)=O)nc(-c2ccc(F)cc2)c1/C=C/[C@@H](O)C[C@@H](O)CC(=O)[O-].CC(C)c1nc(N(C)S(C)(=O)=O)nc(-c2ccc(F)cc2)c1/C=C/[C@@H](O)C[C@@H](O)CC(=O)[O-].[Ca+2] [ROSUVASTATIN CALCIUM] | Compound metabolized | Compound NOT metabolized | Compound metabolized | Compound metabolized | Compound metabolized | Compound NOT metabolized | Compound NOT metabolized | Compound metabolized | Compound metabolized | Compound metabolized | Compound NOT metabolized | Compound metabolized | Compound metabolized | Compound NOT metabolized | Compound NOT metabolized | Compound NOT metabolized | Compound metabolized | Compound NOT metabolized | Compound metabolized | Compound NOT metabolized
4 | CC(C)NCC(O)COc1ccc(CC(N)=O)cc1 (stereo not given) [ATENOLOL] | Compound NOT metabolized | Compound NOT metabolized | Compound metabolized | Compound metabolized | Compound NOT metabolized | Compound NOT metabolized | Compound NOT metabolized | Compound NOT metabolized | Compound metabolized | Compound metabolized | Compound NOT metabolized | Compound NOT metabolized | Compound NOT metabolized | Compound NOT metabolized | Compound NOT metabolized | Compound NOT metabolized | Compound NOT metabolized | Compound NOT metabolized | Compound metabolized | Compound NOT metabolized
5 | COc1ccc2cc([C@H](C)C(=O)O)ccc2c1 [NAPROXEN] | Compound metabolized | Compound NOT metabolized | Compound NOT metabolized | Compound metabolized | Compound metabolized | Compound NOT metabolized | Compound NOT metabolized | Compound metabolized | Compound metabolized | Compound metabolized | Compound NOT metabolized | Compound metabolized | Compound metabolized | Compound NOT metabolized | Compound NOT metabolized | Compound NOT metabolized | Compound NOT metabolized | Compound NOT metabolized | Compound metabolized | Compound NOT metabolized
6 | CCOC(=O)[C@H](CCc1ccccc1)N[C@@H](C)C(=O)N1Cc2ccccc2C[C@H]1C(=O)O | Compound metabolized | Compound NOT metabolized | Compound metabolized | Compound metabolized | Compound metabolized | Compound NOT metabolized | Compound NOT metabolized | Compound NOT metabolized | Compound metabolized | Compound metabolized | Compound NOT metabolized | Compound NOT metabolized | Compound NOT metabolized | Compound metabolized | Compound metabolized | Compound metabolized | Compound metabolized | Compound NOT metabolized | Compound metabolized | Compound NOT metabolized
7 | C#C[C@]1(OC(C)=O)CC[C@H]2[C@@H]3CCC4=C/C(=N/O)CC[C@@H]4[C@H]3CC[C@@]21CC [NORGESTIMATE] | Compound metabolized | Compound NOT metabolized | Compound metabolized | Compound metabolized | Compound metabolized | Compound NOT metabolized | Compound NOT metabolized | Compound metabolized | Compound metabolized | Compound metabolized | Compound NOT metabolized | Compound metabolized | Compound metabolized | Compound NOT metabolized | Compound metabolized | Compound NOT metabolized | Compound metabolized | Compound NOT metabolized | Compound metabolized | Compound NOT metabolized
